One test deals with T1, FKBP51FK1 (Homo sapiens, UniProt Q13451).
T1 construct: FKBP51FK1
T1 sequence (Q13451 42-130 limits assumed): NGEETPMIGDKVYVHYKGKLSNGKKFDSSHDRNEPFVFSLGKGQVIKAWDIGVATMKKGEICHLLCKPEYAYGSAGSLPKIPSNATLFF
The test can be described thus: Binding affinities of exemplary compounds to FKBP51. On the procedure: Binding to FKBP51 is an important prerequisite in order to allow degradation of FKBP51. Thus, the binding affinities of the newly synthesized molecules (table 1) were tested.

Test [1] has as its target T2, FKBP51 (Homo sapiens, UniProt Q13451).
T2 sequence (Q13451 1-457): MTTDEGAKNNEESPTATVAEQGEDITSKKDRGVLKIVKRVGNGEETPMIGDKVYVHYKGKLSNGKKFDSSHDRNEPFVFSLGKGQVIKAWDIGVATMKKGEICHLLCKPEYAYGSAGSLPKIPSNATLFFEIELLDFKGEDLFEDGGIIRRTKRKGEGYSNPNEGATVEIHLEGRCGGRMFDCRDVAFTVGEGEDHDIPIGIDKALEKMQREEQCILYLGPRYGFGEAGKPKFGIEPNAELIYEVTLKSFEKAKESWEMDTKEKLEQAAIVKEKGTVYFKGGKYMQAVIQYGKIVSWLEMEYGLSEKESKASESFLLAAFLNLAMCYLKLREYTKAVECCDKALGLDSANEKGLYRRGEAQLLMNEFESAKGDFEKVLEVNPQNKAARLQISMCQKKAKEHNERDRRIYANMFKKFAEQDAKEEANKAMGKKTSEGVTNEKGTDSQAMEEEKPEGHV
The experiment in a line: Degradation of FKBP51 in HeLa cells (Western blot). Type of test: cell-based. On the set-up: Upper blot: Endogeneous FKBP51; endogenous in cells; host or cells: HeLa. Conditions: 24 h incubation, endogeneous FKBP51, Western Blot, GAPDH control. On the procedure: HeLa cells were incubated with the PROTAC MTQ202. 35,000 cells per well in a 24 well format. Figure 2 - Upper blot: Endogeneous FKBP51. Figure 2 - Lower blot: GAPDH. Cells were treated with the compound for 24 h before lysis. All samples have been exposed to a constant DMSO concentration. Lysate protein concentration was quantified via BCA assay and normalized with Lämmli buffer. Equal amounts of total protein were subjected to SDS-Page and Western Blot afterwards.

Test [2] deals with T2, FKBP51. The experiment in a line: Degradation of FKBP51 in HEK293T cells (Western blot). Conditions: 48 h incubation, endogeneous FKBP51, Western Blot, GAPDH control. On the set-up: Upper blot: Endogeneous FKBP51; endogenous in cells. The format is cell-based. On the procedure: HEK293T cells were incubated with the PROTAC MTQ202. 35,000 cells per well in a 24 well format. Figure 3-Upper blot: Endogeneous FKBP51. Figure 3-Lower blot: GAPDH. Cells were treated with the compound for 48 h before lysis. All samples have been exposed to a constant DMSO concentration. Lysate protein concentration was quantified via BCA assay and normalized with Lämmli buffer. Equal amounts of total protein were subjected to SDS-Page and Western Blot afterwards.
(In general: In western blotting, separated proteins are transferred to a membrane and probed.)

Broadly, the Ki is a measure of affinity in units of concentration, obtained from inhibition or displacement. In turn, `COc1ccc(CC[C@H](OC(=O)[C@H]2CCCCN2C(=O)[C@H](c2cc(OC)c(OC)c(OC)c2)C2CCCCC2)c2cccc(OCc3cn(CCOCCOCCOCCOCC(=O)N[C@H](C(=O)N4C[C@H](O)C[C@H]4C(=O)NCc4ccc(-c5scnc5C)cc4)C(C)(C)C)nn3)c2)cc1OC` (stereo in doubt) [MTQ202, (S)-(R)-3-(3,4-Dimethoxyphenyl)-1-(3-((1-((S)-16-((2S,4R)-4-hydroxy-2-((4-(4-methylthiazol-5-yl)benzyl)carbamoyl)pyrrolidine-1-carbonyl)-17,17-dimethyl-14-oxo-3,6,9,12-tetraoxa-15-azaoctadecyl)-1H-1,2,3-triazol-4-yl)methoxy)phenyl)propyl 1-((S)-2-cyclohexyl-2-(3,4,5-trimethoxyphenyl)acetyl)piperidine-2-carboxylate] had a Ki at FKBP51FK1 of 24 ± 8 nM. The “Degradation of FKBP51” value is “clearly visible, but not complete” at FKBP51 [1] and “clearly visible, but not complete” at FKBP51 [2].
On FKBP51FK1, `COc1cccc([C@@H](CCc2ccc(OCc3cn(CCOCCOCCOCCOCC(=O)N[C@H](C(=O)N4C[C@H](O)C[C@H]4C(=O)NCc4ccc(-c5scnc5C)cc4)C(C)(C)C)nn3)c(OC)c2)OC(=O)[C@@H]2CCCCN2C(=O)[C@H](c2cc(OC)c(OC)c(OC)c2)C2CCCCC2)c1` [MTQ331, (S)-(R)-3-(4-((1-((5)-16-((25,4R)-4-Hydroxy-2-((4-(4-methylthiazol-5-yl)benzyl)carbamoyl)pyrrolidine-l-carbonyl)-17,17-dimethyl-14-oxo-3,6,9,12-tetraoxa-15-azaoctadecyl)-1H-1,2,3-triazol-4-yl)methoxy)-3-methoxyphenyl)-1-(3-methoxyphenyl)propyl 1-((S)-2-cyclohexyl-2-(3,4,5-trimethoxyphenyl)acetyl)piperidine-2-carboxylate] had a Ki of 59 ± 22 nM.
Still for that read-out and setting: to `COc1cccc([C@@H](CCc2ccc(OCc3cn(CCOCCOCCOCCOCCOCC(=O)N[C@H](C(=O)N4C[C@H](O)C[C@H]4C(=O)NCc4ccc(-c5scnc5C)cc4)C(C)(C)C)nn3)c(OC)c2)OC(=O)[C@@H]2CCCCN2C(=O)[C@H](c2cc(OC)c(OC)c(OC)c2)C2CCCCC2)c1` [MTQ332, (S)-(R)-3-(4-((1-((S)-19-((2S,4R)-4-Hydroxy-2-((4-(4-methylthiazo1-5-yl)benzyl)carbamoyl)pyrrolidine-1-carbonyl)-20,20-dimethyl-17-oxo-3,6,9,12,15-pentaoxa-18-azahenicosyl)-1H-1,2,3-triazol-4-yl)methoxy)-3-methoxyphenyl)-1-(3-methoxyphenyl)propyl 1-((S)-2-cyclohexyl-2-(3,4,5-trimethoxyphenyl)acetyl)piperidine-2-carboxylate] belongs 34 ± 10 nM; to `COc1cccc([C@@H](CCc2ccc(OCc3cn(CCOCC(=O)Nc4cccc5c4C(=O)N(C4CCC(=O)NC4=O)C5=O)nn3)c(OC)c2)OC(=O)[C@@H]2CCCCN2C(=O)[C@H](c2cc(OC)c(OC)c(OC)c2)C2CCCCC2)c1` (stereo partly drawn) [MTQ333, (25)-(1R)-3-(4-((1-(2-(2-((2-(2,6-Dioxopiperidin-3-yl)-1,3-dioxoisoindolin-4-yl)amino)-2-oxoethoxy)ethyl)-1H-1,2,3-triazol-4-yl)methoxy)-3-methoxyphenyl)-1-(3-methoxyphenyl)propyl 1-((S)-2-cyclohexyl-2-(3,4,5-trimethoxyphenyl)acetyl)piperidine-2-carboxylate], 22 ± 6 nM; to `COc1cccc([C@@H](CCc2ccc(OCc3cn(CCOCCOCC(=O)Nc4cccc5c4C(=O)N(C4CCC(=O)NC4=O)C5=O)nn3)c(OC)c2)OC(=O)[C@@H]2CCCCN2C(=O)[C@H](c2cc(OC)c(OC)c(OC)c2)C2CCCCC2)c1` (stereo partly drawn) [MTQ334, (25)-(1R)-3-(4-((1-(2-(2-(2-((2-(2,6-Dioxopiperidin-3-yl)-1,3-dioxoisoindolin-4-yl)amino)-2-oxoethoxy)ethoxy)ethyl)-1H-1,2,3-triazol-4-yl)methoxy)-3-methoxyphenyl)-1-(3-methoxyphenyl)propyl 1-((S)-2-cyclohexyl-2-(3,4,5-trimethoxyphenyl)acetyl)piperidine-2-carboxylate], 21 ± 10 nM.
